Earlier results in patent publication US8193201B2, “Synergistic anti-inflammatory pharmaceutical compositions and related methods using curcuminoids or methylxanthines” (priority 2004, dated 2012).

Tested on: PGE2
Details: value reported in the literature (Fiebich et al.)

SMILES: Cn1c(=O)c2c(ncn2C)n(C)c1=O [Caffeine, caffeine]
- median PGE2 inhibitory concentration: 8.2 µg/mL
